Tests used:
[1] = tested on: HIV-1 mutant strain RES056 (K103N + Y181C); test: microbe, parasite or virus in culture; format: cell-based; settings: Human immunodeficiency virus 1, MT4, read-out: EC50 RES056
[2] = tested on: HIV-1 mutant strain Y188L; test: microbe, parasite or virus in culture; format: cell-based; settings: Human immunodeficiency virus 1, MT4, read-out: EC50 Y188L
[3] = tested on: HIV-1 WT strain (IIIB); test: Anti-HIV activity against WT HIV-1
[4] = Cytotoxicity in mock-infected MT-4 cells, MTT method; format: cell-based; settings: human, mock-infected MT-4 cells, CC50, mock-infected MT-4 cells
[5] = tested on: HIV-1 mutant strain Y181C; test: microbe, parasite or virus in culture; format: cell-based; settings: Human immunodeficiency virus 1, MT4, read-out: EC50 Y181C
[6] = tested on: HIV-1 mutant strain E138K; test: microbe, parasite or virus in culture; format: cell-based; settings: Human immunodeficiency virus 1, MT4, read-out: EC50 E138K
[7] = tested on: HIV-1 mutant strain K103N; test: microbe, parasite or virus in culture; format: cell-based; settings: Human immunodeficiency virus 1, MT4, read-out: EC50 K103N
[8] = tested on: HIV-1 mutant strain L100I; test: microbe, parasite or virus in culture; format: cell-based; settings: Human immunodeficiency virus 1, MT4, read-out: EC50 L100I
[9] = tested on: HIV-1 mutant strain F227L + V106A; test: microbe, parasite or virus in culture; format: cell-based; settings: Human immunodeficiency virus 1, MT4, read-out: EC50 F227L + V106A

Row | Structure (SMILES) | EC50 [1] [nM] | EC50 [2] [nM] | SI IIIB (CC50/EC50 ratio) ([3]; WT HIV-1 IIIB) | CC50 at 5 days [4] [nM] | EC50 [5] [nM] | EC50 [6] [nM] | EC50 [7] [nM] | EC50 [8] [nM] | EC50 [9] [nM] | selectivity index, times higher than that of IAS-0 ([3]; WT HIV-1) [times] | EC50 ([3]; read-out: EC50 IIIB, WT HIV-1 IIIB, MT-4 cells) [nM]
1 | Cc1cc(C)cc(S(=O)(=O)c2c(C(=O)NCCNS(=O)(=O)c3ccccc3)[nH]c3ccc(Cl)cc23)c1 [R9L2, 5-Chloro-3-((3,5-dimethylphenyl)sulfonyl)-N-(2-(phenylsulfonamido)ethyl)-1H-indole-2-carboxamide] | 3140 ± 110 | 2810 ± 290 | 13,509 | 185000 ± 8310 | 260 ± 73 | 220 ± 73 | 240 ± 37 | 260 ± 110 | 1120 ± 350 |  | 
2 | Cc1cc(C)cc(S(=O)(=O)c2c(C(=O)NCCCNS(=O)(=O)c3ccccc3)[nH]c3ccc(Cl)cc23)c1 [R9L3, 5-Chloro-3-((3,5-dimethylphenyl)sulfonyl)-N-(3-(phenylsulfonamido)propyl)-1H-indole-2-carboxamide] | 4760 ± 800 | 3080 ± 250 | >8047 | > 224000 | 700 ± 270 | 55 ± 18 | 320 ± 72 | 180 ± 54 | 800 ± 250 |  | 
3 | Cc1cc(C)cc(S(=O)(=O)c2c(C(=O)NCCCCNS(=O)(=O)c3ccccc3)[nH]c3ccc(Cl)cc23)c1 [R9L4, 5-Chloro-3-((3,5-dimethylphenyl)sulfonyl)-N-(4-(phenylsulfonamido)butyl)-1H-indole-2-carboxamide] | > 115000 | 870 ± 170 | 15,106 | 113000 ± 26800 | 150 ± 33 | 31 ± 7 | 150 ± 45 | 28 ± 8.7 | 280 ± 52 |  | 
4 | Cc1cc(C)cc(S(=O)(=O)c2c(C(=O)NCCCCCNS(=O)(=O)c3ccccc3)[nH]c3ccc(Cl)cc23)c1 [R9L5, 5-Chloro-3-((3,5-dimethylphenyl)sulfonyl)-N-(5-(phenylsulfonamido)pentyl)-1H-indole-2-carboxamide] | > 119000 | 1460 ± 560 | 8814 | 129000 ± 6850 | 220 ± 17 | 36 ± 7 | 340 ± 51 | 44 ± 5 | 220 ± 85 |  | 
5 | Cc1cc(C)cc(S(=O)(=O)c2c(C(=O)NCCNS(=O)(=O)c3cccnc3)[nH]c3ccc(Cl)cc23)c1 [R10L2, 5-Chloro-3-((3,5-dimethylphenyl)sulfonyl)-N-(2-(pyridine-3-sulfonamido)ethyl)-1H-indole-2-carboxamide] | 4600 ± 310 | 2200 ± 400 | 3205 | 23400 ± 750 | 290 ± 18 | 120 ± 33 | 290 ± 55 | 140 ± 46 | 1480 ± 270 |  | 
6 | Cc1cc(C)cc(S(=O)(=O)c2c(C(=O)NCCCNS(=O)(=O)c3cccnc3)[nH]c3ccc(Cl)cc23)c1 [R10L3, 5-Chloro-3-((3,5-dimethylphenyl)sulfonyl)-N-(3-(pyridine-3-sulfonamido)propyl)-1H-indole-2-carboxamide] | 7770 ± 2320 | 2320 ± 110 | 6950 | 55100 ± 8070 | 200 ± 18 | 43 ± 5 | 200 ± 36 | 100 ± 32 | 540 ± 270 |  | 
7 | Cc1cc(C)cc(S(=O)(=O)c2c(C(=O)NCCCCCNS(=O)(=O)c3cccnc3)[nH]c3ccc(Cl)cc23)c1 [R10L5, 5-Chloro-3-((3,5-dimethylphenyl)sulfonyl)-N-(5-(pyridine-3-sulfonamido)pentyl)-1H-indole-2-carboxamide] | 10600 ± 6700 | 730 ± 34 | 5513 | 41900 ± 2180 | 110 ± 22 | 29 ± 12 | 190 ± 34 | 46 ± 14 | 140 ± 75 |  | 
8 | Cc1cc(C)cc(S(=O)(=O)c2c(C(=O)NCCNS(=O)(=O)c3ccccc3F)[nH]c3ccc(Cl)cc23)c1 [R11L2, 5-Chloro-3-((3,5-dimethylphenyl)sulfonyl)-N-(2-((2-fluorophenyl)sulfonamido)ethyl)-1H-indole-2-carboxamide] | 3040 ± 210 | 2680 ± 250 | 11,116 | 199000 ± 8290 | 280 ± 36 | 200 ± 36 | 210 ± 53 | 250 ± 71 | 1230 ± 430 |  | 
9 | Cc1cc(C)cc(S(=O)(=O)c2c(C(=O)NCCCNS(=O)(=O)c3ccccc3F)[nH]c3ccc(Cl)cc23)c1 [R11L3, 5-Chloro-3-((3,5-dimethylphenyl)sulfonyl)-N-(3-((2-fluorophenyl)sulfonamido)propyl)-1H-indole-2-carboxamide] | 12800 ± 10100 | 7120 ± 760 | 12,570 | 192000 ± 4990 | 610 ± 140 | 68 ± 2 | 280 ± 35 | 160 ± 78 | 880 ± 520 |  | 
10 | Cc1cc(C)cc(S(=O)(=O)c2c(C(=O)NCCCCNS(=O)(=O)c3ccccc3F)[nH]c3ccc(Cl)cc23)c1 [R11L4, 5-Chloro-3-((3,5-dimethylphenyl)sulfonyl)-N-(4-((2-fluorophenyl)sulfonamido)butyl)-1H-indole-2-carboxamide] | > 190000 | 1740 ± 320 | 20,621 | 189500 ± 1320 | 200 ± 17 | 36 ± 5 | 170 ± 17 | 63 ± 25 | 290 ± 34 |  | 
11 | Cc1cc(C)cc(S(=O)(=O)c2c(C(=O)NCCNS(=O)(=O)c3cccc(F)c3)[nH]c3ccc(Cl)cc23)c1 [R12L2, 5-Chloro-3-((3,5-dimethylphenyl)sulfonyl)-N-(2-((3-fluorophenyl)sulfonamido)ethyl)-1H-indole-2-carboxamide] | 4940 ± 1240 | 3300 ± 300 | 5151 | 187000 ± 4810 | 550 ± 89 | 440 ± 110 | 500 ± 89 | 460 ± 180 | 2260 ± 550 |  | 
12 | Cc1cc(C)cc(S(=O)(=O)c2c(C(=O)NCCCNS(=O)(=O)c3cccc(F)c3)[nH]c3ccc(Cl)cc23)c1 [R12L3, 5-Chloro-3-((3,5-dimethylphenyl)sulfonyl)-N-(3-((3-fluorophenyl)sulfonamido)propyl)-1H-indole-2-carboxamide] | 4730 ± 1040 | 3380 ± 450 | 5799 | 204000 ± 10800 | 750 ± 210 | 110 ± 43 | 450 ± 120 | 260 ± 87 | 990 ± 140 |  | 
13 | Cc1cc(C)cc(S(=O)(=O)c2c(C(=O)NCCCCNS(=O)(=O)c3cccc(F)c3)[nH]c3ccc(Cl)cc23)c1 [R12L4, 5-Chloro-3-((3,5-dimethylphenyl)sulfonyl)-N-(4-((3-fluorophenyl)sulfonamido)butyl)-1H-indole-2-carboxamide] | > 173000 | 1450 ± 410 | 10,126 | 186000 ± 12500 | 190 ± 34 | 49 ± 12 | 240 ± 68 | 63 ± 17 | 240 ± 34 |  | 
14 | Cc1cc(C)cc(S(=O)(=O)c2c(C(=O)NCCNS(=O)(=O)C3CC3)[nH]c3ccc(Cl)cc23)c1 [R13L2, 5-Chloro-N-(2-(cyclopropanesulfonamido)ethyl)-3-((3,5-dimethylphenyl)sulfonyl)-1H-indole-2-carboxamide] | 32600 ± 7960 | 1650 ± 390 | 41,951 | 172000 ± 6910 | 180 ± 57 | 55 ± 16 | 110 ± 20 | 53 ± 22 | 510 ± 120 | ~14 | 4.1 ± 0.79
15 | Cc1cc(C)cc(S(=O)(=O)c2c(C(=O)NCCNS(=O)(=O)c3ccc(-c4ccccc4)cc3)[nH]c3ccc(Cl)cc23)c1 [R14L2, N-(2-([1,1′-Biphenyl]-4-sulfonamido)ethyl)-5-chloro-3-((3,5-dimethylphenyl)sulfonyl)-1H-indole-2-carboxamide] | > 82400 | > 31200 | 317 | 64300 ± 11200 | 1420 ± 370 | 740 ± 97 | 1190 ± 260 | 950 ± 97 | 2990 ± 680 |  | 

Source: publication PMC10326263 (Acta Pharmaceutica Sinica. B, 2023)
